According to PubChem BioAssay AID2060900 (Molecular Pharmacology Branch, DTP, NCI, 2025):
Values joined by “and” are separate entries in the source; they are usually repeats but may differ in a detail not shown here. Equal values may be shown once.

Tested on: 521955-158-R2-J5-PDC complex spheroids, viability
Assay: Anticancer human tumor 521955-158-R2-J5-PDC patient-derived pancreatic carcinoma cell line growth inhibition [RAS]
Settings: for viability, T/C: stronger effect = lower value
How it was run: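 Agents were tested in combination matrices in half-log decrements from a top concentration at or near clinical Cmax (10 microM if undetermined). Targets were multi-cell spheroids of tumour lines plus HUVEC and MSC stromal cells.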

[1] = curve of first compound, second compound 0.000949 µM
[2] = curve of first compound, second compound 0.003 µM
[3] = curve of first compound, second compound 0.00949 µM
[4] = curve of first compound, second compound 0.03 µM
[5] = curve of first compound, second compound 0.0949 µM
[6] = curve of first compound, second compound 0.3 µM
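Also: compound exposure lasted seven days before the viability read.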
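For viability, T/C in this document: spheroids also contain HUVEC endothelial cells and mesenchymal stem cells as stroma.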

In the case of `CCc1c2c(nc3ccc(O)cc13)-c1cc3c(c(=O)n1C2)COC(=O)[C@]3(O)CC` + CCn1c(-c2cccnc2C(C)OC)c2c3cc(ccc31)N1CCOC(CC(NC(=O)C(C(C)C)N(C)C(=O)C3(F)CCN(C(=O)C#CC(C)(C)N(C)C)CC3)C(=O)N3CCCC(N3)C(=O)OCC(C)(C)C2)C1, the IC50 [1] is reported as 2.25 nM, the IC50 [2] is reported as 2.41 nM and the IC50 [3] is reported as 2.52 nM. For the same compound, the IC50 [4] was 2.53 nM, the IC50 [5] was 2.64 nM and the IC50 [6] was 1.7 nM. It also gave a viability, T/C (second compound 0.000949 µM, first compound 0.000949 µM) of 97.8%, a viability, T/C (second compound 0.000949 µM, first compound 0.003 µM) of 34.1% and a viability, T/C (second compound 0.000949 µM, first compound 0.00949 µM) of 12.3%. It also gave a viability, T/C (second compound 0.000949 µM, first compound 0.03 µM) of 5.82%, a viability, T/C (second compound 0.000949 µM, first compound 0.0949 µM) of 6.17% and a viability, T/C (second compound 0.000949 µM, first compound 0.3 µM) of 6.87%. The viability, T/C (second compound 0.003 µM, first compound 0.000949 µM) was 92.6%, the viability, T/C (second compound 0.003 µM, first compound 0.003 µM) was 39.6% and the viability, T/C (second compound 0.003 µM, first compound 0.00949 µM) was 16.9%. It also gave a viability, T/C (second compound 0.003 µM, first compound 0.03 µM) of 5.84%, a viability, T/C (second compound 0.003 µM, first compound 0.0949 µM) of 4.8% and a viability, T/C (second compound 0.003 µM, first compound 0.3 µM) of 7.45%. The viability, T/C (second compound 0.00949 µM, first compound 0.000949 µM) was 104%, the viability, T/C (second compound 0.00949 µM, first compound 0.003 µM) was 40.5% and the viability, T/C (second compound 0.00949 µM, first compound 0.00949 µM) was 14.4%. For the same compound, the viability, T/C (second compound 0.00949 µM, first compound 0.03 µM) was 8.96%, the viability, T/C (second compound 0.00949 µM, first compound 0.0949 µM) was 6.33% and the viability, T/C (second compound 0.00949 µM, first compound 0.3 µM) was 7.48%. For the same compound, the viability, T/C (second compound 0.03 µM, first compound 0.000949 µM) was 72.7%, the viability, T/C (second compound 0.03 µM, first compound 0.003 µM) was 46.1% and the viability, T/C (second compound 0.03 µM, first compound 0.00949 µM) was 11.3%. The viability, T/C (second compound 0.03 µM, first compound 0.03 µM) was 10%, the viability, T/C (second compound 0.03 µM, first compound 0.0949 µM) was 5.57% and the viability, T/C (second compound 0.03 µM, first compound 0.3 µM) was 7.99%. For the same compound, the viability, T/C (second compound 0.0949 µM, first compound 0.000949 µM) was 101%, the viability, T/C (second compound 0.0949 µM, first compound 0.003 µM) was 43.5% and the viability, T/C (second compound 0.0949 µM, first compound 0.00949 µM) was 12.7%. It also gave a viability, T/C (second compound 0.0949 µM, first compound 0.03 µM) of 4.87%, a viability, T/C (second compound 0.0949 µM, first compound 0.0949 µM) of 7.25% and a viability, T/C (second compound 0.0949 µM, first compound 0.3 µM) of 6.81%. The viability, T/C (second compound 0.3 µM, first compound 0.000949 µM) was 66%, the viability, T/C (second compound 0.3 µM, first compound 0.003 µM) was 34.3% and the viability, T/C (second compound 0.3 µM, first compound 0.00949 µM) was 10%. For the same compound, the viability, T/C (second compound 0.3 µM, first compound 0.03 µM) was 5.73%, the viability, T/C (second compound 0.3 µM, first compound 0.0949 µM) was 6.03% and the viability, T/C (second compound 0.3 µM, first compound 0.3 µM) was 4.48%.

`C=CC(=O)Nc1cc(Nc2nccc(-c3cn(C)c4ccccc34)n2)c(OC)cc1N(C)CCN(C)C` was tested, and the viability, T/C (compound 0.00316 µM) was 101% [middle of 4 runs], the viability, T/C (compound 0.0316 µM) was 94.7% [middle of 4 runs] and the viability, T/C (compound 0.1 µM) was 79.1% [middle of 4 runs]. For the same compound, the IC50 (curve of compound) was 965 nM and 466 nM and > 1000 nM.

With `CC1(C)CCC(Nc2ncc(C(F)(F)F)c(-c3c[nH]c4c(P(C)(C)=O)c(C#N)ccc34)n2)CN1` (stereo not drawn) the viability, T/C (compound 0.000949 µM) was 104% [middle of 4 runs], the viability, T/C (compound 0.003 µM) was 74.5% [middle of 4 runs] and the viability, T/C (compound 0.00949 µM) was 57.2% [middle of 4 runs]. The viability, T/C (compound 0.03 µM) was 48.7% [middle of 4 runs] and the viability, T/C (compound 0.0949 µM) was 52.8% [middle of 4 runs].

For `CCN1CCN(Cc2ccc(Nc3ncc(F)c(-c4cc(F)c5nc(C)n(C(C)C)c5c4)n3)nc2)CC1` + CCn1c(-c2cc(N3CCN(C)CC3)cnc2C(C)OC)c2c3cc(ccc31)-c1csc(n1)CC(NC(=O)C1CC1C)C(=O)N1CCCC(N1)C(=O)OCC(C)(C)C2, the IC50 [1] was under 3.16 nM, the IC50 [2] was under 3.16 nM and the IC50 [3] was under 3.16 nM. For the same compound, the IC50 [4] was under 3.16 nM, the IC50 [5] was under 3.16 nM and the IC50 [6] was under 3.16 nM. The viability, T/C (second compound 0.000949 µM, first compound 0.00316 µM) was 43.2%, the viability, T/C (second compound 0.000949 µM, first compound 0.01 µM) was 39.4% and the viability, T/C (second compound 0.000949 µM, first compound 0.0316 µM) was 39.4%. It also gave a viability, T/C (second compound 0.000949 µM, first compound 0.1 µM) of 31.6%, a viability, T/C (second compound 0.000949 µM, first compound 0.316 µM) of 43.6% and a viability, T/C (second compound 0.000949 µM, first compound 1 µM) of 47.6%. For the same compound, the viability, T/C (second compound 0.003 µM, first compound 0.00316 µM) was 39.4%, the viability, T/C (second compound 0.003 µM, first compound 0.01 µM) was 40.9% and the viability, T/C (second compound 0.003 µM, first compound 0.0316 µM) was 41.2%. It also gave a viability, T/C (second compound 0.003 µM, first compound 0.1 µM) of 39.2%, a viability, T/C (second compound 0.003 µM, first compound 0.316 µM) of 37.9% and a viability, T/C (second compound 0.003 µM, first compound 1 µM) of 36.6%. For the same compound, the viability, T/C (second compound 0.00949 µM, first compound 0.00316 µM) was 35.8%, the viability, T/C (second compound 0.00949 µM, first compound 0.01 µM) was 30.1% and the viability, T/C (second compound 0.00949 µM, first compound 0.0316 µM) was 28.4%. It also gave a viability, T/C (second compound 0.00949 µM, first compound 0.1 µM) of 22.8%, a viability, T/C (second compound 0.00949 µM, first compound 0.316 µM) of 27.5% and a viability, T/C (second compound 0.00949 µM, first compound 1 µM) of 25.9%. It also gave a viability, T/C (second compound 0.03 µM, first compound 0.00316 µM) of 23%, a viability, T/C (second compound 0.03 µM, first compound 0.01 µM) of 18.4% and a viability, T/C (second compound 0.03 µM, first compound 0.0316 µM) of 17%. The viability, T/C (second compound 0.03 µM, first compound 0.1 µM) was 16.8%, the viability, T/C (second compound 0.03 µM, first compound 0.316 µM) was 16.4% and the viability, T/C (second compound 0.03 µM, first compound 1 µM) was 16.5%. It also gave a viability, T/C (second compound 0.0949 µM, first compound 0.00316 µM) of 12.1%, a viability, T/C (second compound 0.0949 µM, first compound 0.01 µM) of 11% and a viability, T/C (second compound 0.0949 µM, first compound 0.0316 µM) of 11.4%. It also gave a viability, T/C (second compound 0.0949 µM, first compound 0.1 µM) of 8.7%, a viability, T/C (second compound 0.0949 µM, first compound 0.316 µM) of 13.6% and a viability, T/C (second compound 0.0949 µM, first compound 1 µM) of 14.8%. The viability, T/C (second compound 0.3 µM, first compound 0.00316 µM) was 9.79%, the viability, T/C (second compound 0.3 µM, first compound 0.01 µM) was 8.72% and the viability, T/C (second compound 0.3 µM, first compound 0.0316 µM) was 10.5%. For the same compound, the viability, T/C (second compound 0.3 µM, first compound 0.1 µM) was 10%, the viability, T/C (second compound 0.3 µM, first compound 0.316 µM) was 13.9% and the viability, T/C (second compound 0.3 µM, first compound 1 µM) was 13.1%.
